The experiment has as its system ras p21 protein. Put plainly: Ras p21 Nucleotide Exchange Assay (inhibition of ^3H-GDP binding to p21 ras). It is filed as biochemical. Conditions: for Ras p21 Assay (per cent inhibition): at (100), unit not given. As to the method:
Ras p21 Nucleotide Exchange Assay
The conditions for assay of nucleotide exchange inhibitors was adapted from Hall, A. and A. J. Self. 1986 J. Biol. Chem. 261: 10963-10965, which is hereby incorporated by reference.
0.5 μM ras p21 protein was incubated in 50 μls exhange buffer (50 mM Tris-HCl pH 7.5, 5 mM MgCl2, 50 mM NaCl and […]) on ice. Compounds dissolved in dimethyl sulfoxide (DMSO) were added to the desired concentration such that the final concentration of DMSO in the reaction mixture was 2% by weight. The reaction was incubated for 5 minutes on ice and then ^3 H-GDP (final concentration was 0.25 μM) was added.
Biological data are given throughout the specification in one of two forms: either as per cent inhibitions, or as the concentration at which the test compound causes 50% inhibition (IC50) of the binding of ^3 H-GDP to the p21 ras protein.
When the above assay was run at one concentration of the test compound, then the data was given as per cent inhibition at a particular concentration. […] When the assay was run at a series of concentrations, then the data were given as IC50 's.

Where [1] appears, read: table 1, concentration causing 50% inhibition of ^3H-GDP binding, read-out: Ras p21 Assay (IC50).
Setting [2] is: table 2, concentration causing 50% inhibition of ^3H-GDP binding, read-out: ras p21 Assay (IC50).

One may read the IC50 as the concentration that inhibits the measured activity by half.

Where two headings read alike, the source gives them in different places.

Regarding `COc1ccc2nc3c(c(C)nn3[C@@H]3O[C@H](COCc4ccccc4)[C@@H](OCc4ccccc4)[C@H]3OCc3ccccc3)c(Cl)c2c1` [CH2 Ph CH2 Ph CH2 Ph], the “ras p21 Assay (per cent inhibition)” value (table 2, 100 μM) is 35%.
Take `COc1ccc2nc3nn([C@@H]4O[C@H](COC(=O)c5ccccc5)[C@@H](OC(=O)c5ccccc5)[C@H]4OC(=O)c4ccccc4)c(C)c3c(Cl)c2c1` [Cl O(CO)Ph O(CO)Ph O(CO)Ph]: the IC50 under setting [1] turned out to be 10 µM.
In the case of `COc1ccc2nc3nn([C@@H]4O[C@H](COC(=O)c5ccccc5)[C@H]5OC(=S)O[C@H]54)c(C)c3c(Cl)c2c1` [Cl O(CO)Ph OC(S)O], the “Ras p21 Assay (per cent inhibition)” value (table 1) stood at 86%.
For the compound `COc1ccc2nc3nn([C@@H]4O[C@H](COC(=O)c5ccccc5)[C@@H](OC(C)=O)[C@H]4OC(C)=O)c(C)c3c(Cl)c2c1` [Cl O(CO)Ph OCOCH3 OCOCH3], for the setting “table 1”, the “Ras p21 Assay (per cent inhibition)” value is listed as 20%.
The same measure, in the same setting: under `COc1ccc2nc3nn([C@@H]4O[C@H](COC(=O)c5ccccc5)[C@@H](O)[C@H]4O)c(C)c3c(Cl)c2c1` [Cl O(CO)Ph OH OH] stands 49%; under `COc1ccc2nc3nn([C@@H]4O[C@H](CO)[C@@H](O)[C@H]4O)c(C)c3c(Cl)c2c1` [Cl OH OH OH], 0%.
Consider `COc1ccc2nc3c(c(C)nn3[C@@H]3O[C@H](C(O)CC(=O)c4ccccc4)[C@H]4OC(=S)O[C@H]43)c(Cl)c2c1` (stereo partly drawn) [Compound U], for which the IC50 was found to be 1.5 µM (read-out: IC50 in the ras p21 assay) and 1.5 µM under setting [2].
Consider `COc1ccc2nc3nn([C@@H]4O[C@H](COC(=O)c5ccccc5)[C@@H](OC(=O)c5ccccc5)[C@H]4OC(=O)c4ccccc4)c(C)c3cc2c1` [H O(CO)Ph O(CO)Ph O(CO)Ph], for which the IC50 under setting [1] turned out to be 8 µM.
Turning to `COc1ccc2nc3c(c(C)nn3[C@@H]3O[C@H](CN)[C@H]4OC(C)(C)O[C@H]43)c(Cl)c2c1` [NH2 OC(CH3)2 O], the “ras p21 Assay (per cent inhibition)” value (table 2, 50 μM) is 38%.
Take `COc1ccc2nc3c(c(C)nn3[C@@H]3O[C@H](COC(=O)c4ccco4)[C@@H](OC(=O)c4ccco4)[C@H]3OC(=O)c3ccco3)c(Cl)c2c1` [O(CO)-2-Fu O(CO)-2-Fu O(CO)-2-Fu]: the IC50 under setting [2] amounted to 10 µM.
With `COc1ccc2nc3c(c(C)nn3[C@@H]3O[C@H](COC(=O)c4ccoc4)[C@@H](OC(=O)c4ccoc4)[C@H]3OC(=O)c3ccoc3)c(Cl)c2c1` [O(CO)-3-Fu O(CO)-3-Fu O(CO)-3-Fu], the “ras p21 Assay (per cent inhibition)” value (table 2, 50 μM) amounted to 49%.
On to `COc1ccc2nc3c(c(C)nn3[C@@H]3O[C@H](COC(=O)Cc4ccccc4)[C@@H](OC(=O)Cc4ccccc4)[C@H]3OC(=O)Cc3ccccc3)c(Cl)c2c1` [O(CO)CH2 Ph (CO)CH2 Ph O(CO)CH2 Ph], for which the “ras p21 Assay (per cent inhibition)” value (table 2, 100 μM) turned out to be 62%.
On to `COc1ccc2nc3c(c(C)nn3[C@H]3C=C[C@@H](COC(=O)c4ccccc4)O3)c(Cl)c2c1` [O(CO)Ph --], for which the IC50 under setting [2] amounted to 90 µM.
In the case of `COc1ccc2nc3c(c(C)nn3[C@@H]3O[C@H](COC(=O)c4ccccc4)[C@@H](OCc4ccccc4)[C@H]3OCc3ccccc3)c(Cl)c2c1` [O(CO)Ph CH2 Ph CH2 Ph], the “ras p21 Assay (per cent inhibition)” value (table 2, 100 μM) amounted to 53%.
The same measure, in the same setting: under `COc1ccc2nc3c(c(C)nn3[C@@H]3O[C@H](COC(=O)c4ccccc4)[C@@H](OC(C)=O)[C@H]3OC(C)=O)c(Cl)c2c1` [O(CO)Ph O(CO)CH3 O(CO)CH3] stands 44%.
As to `COc1ccc2nc3c(c(C)nn3[C@@H]3O[C@H](COC(=O)c4ccccc4)[C@@H](OC(=O)c4ccccc4)[C@H]3OC(=O)c3ccccc3)c(Cl)c2c1` [O(CO)Ph O(CO)Ph O(CO)Ph], the IC50 under setting [2] is 10 µM.
For the compound `COc1ccc2nc3c(c(C)nn3[C@@H]3O[C@H](COC(=O)c4ccccc4)[C@H]4OC(c5ccccc5)O[C@H]43)c(Cl)c2c1` (stereo partly drawn) [O(CO)Ph OC(Ph)O], the “ras p21 Assay (per cent inhibition)” value (table 2, 100 μM) was 41%.
Still for that read-out and setting: to `COc1ccc2nc3c(c(C)nn3[C@@H]3O[C@H](COC(=O)c4ccccc4)[C@@H](O)[C@H]3O)c(Cl)c2c1` [O(CO)Ph OH OH] belongs 16%.
Consider `COc1ccc2nc3c(c(C)nn3[C@@H]3O[C@H](COC(=O)c4ccc([N+](=O)[O-])cc4)[C@@H](OC(=O)c4ccc([N+](=O)[O-])cc4)[C@H]3OC(=O)c3ccc([N+](=O)[O-])cc3)c(Cl)c2c1` [O(CO)Ph-4-NO2 (CO)Ph-4-NO2 O(CO)Ph-4-NO2], for which, where the note is “table 2, 100 μM”, the “ras p21 Assay (per cent inhibition)” value was 59%.
`COc1ccc2nc3c(c(C)nn3[C@@H]3O[C@H](CNC(=O)c4ccccc4)[C@H]4OC(C)(C)O[C@H]43)c(Cl)c2c1` [O(CO)PhNH OC(CH3)2 O]: the “ras p21 Assay (per cent inhibition)” value (table 2, 50 μM) is on record as 56%.
`COc1ccc2nc3c(c(C)nn3[C@@H]3O[C@H](CNC(=O)c4ccccc4)[C@@H](O)[C@H]3O)c(Cl)c2c1` [O(CO)PhNH OH OH]: under “table 2, 50 μM”, the “ras p21 Assay (per cent inhibition)” value was 24%.
As to `COc1ccc2nc3c(c(C)nn3[C@@H]3O[C@H](COC(=O)c4cccnc4)[C@@H](OC(=O)c4cccnc4)[C@H]3OC(=O)c3cccnc3)c(Cl)c2c1` [O(CO)Py O(CO)Py O(CO)Py], the “ras p21 Assay (per cent inhibition)” value (table 2, 50 μM) came out at 33%.
Regarding `COc1ccc2nc3c(c(C)nn3[C@@H]3O[C@H](COC(C)=O)[C@@H](OC(C)=O)[C@H]3OC(C)=O)c(Cl)c2c1` [OCOCH3 O(CO)CH3 O(CO)CH3], the “ras p21 Assay (per cent inhibition)” value (table 2, 100 μM) amounted to 3%.
Regarding `COc1ccc2nc3nn([C@@H]4O[C@H](COC(=O)c5ccccc5)[C@@H](OC(=O)c5ccccc5)[C@H]4OC(=O)c4ccccc4)c(C)c3c(O)c2c1` [OH O(CO)Ph O(CO)Ph O(CO)Ph], under setting [1], the IC50 amounted to 10 µM.
As for `COc1ccc2nc3c(c(C)nn3[C@@H]3O[C@H](CO)[C@H]4OC(C)(C)O[C@H]43)c(Cl)c2c1` [OH OC(CH3)2 O], the “ras p21 Assay (per cent inhibition)” value (table 2, 100 μM) was 11%.
For the compound `COc1ccc2nc3nn([C@@H]4O[C@H](CO)[C@@H](O)[C@H]4O)c(C)c3c(O)c2c1` [OH OH OH OH], the “Ras p21 Assay (per cent inhibition)” value (table 1) was 49%.

Values taken from US5595998A, “Pyrazoloquinolines” (priority 1994, dated 1997).
